Assays:
[1] = test system: MDA-MB 231; assay: Proliferation assay MDA-MB 231; assay type: cell-based; details: Homo sapiens, 96 h; MDA-MB 231, estrogen receptor-negative mamma carcinoma; 4 days, crystal violet
Experimental: (§1) Cultivated human tumor cells (originally obtained from ATCC, HeLa-MaTu and HeLa-MaTu-ADR, originally obtained from Epo GmbH, Berlin, Germany) were plated at a density of 1000 to 5000 cells/measuring point, depending on the growth rate of the cell line, in a 96-well multititer plate in 200 μl of growth medium (DMEM/HAMS F12, 2 mM L-glutamine, 10% fetal calf serum). After 24 hours the cells of one plate (zero-point plate) were stained with crystal violet (see below), whereas the medium of the other plates was replaced with fresh culture medium (200 μl), to which the test substances had been added at various concentrations (0 μM, and in the range 0.01-30 μM; the final concentration of the solvent dimethyl sulfoxide was 0.5%). The cells were incubated for 4 days in the presence of the test substances. Cellular proliferation was determined by staining the cells with crystal violet: the cells were fixed by adding 20 μl/measuring point of an 11% glutaraldehyde solution for 15 min at room temperature. […] The extinction was determined photometrically at a wavelength of 595 nm. The percentage change in cell growth was calculated by standardization of the measured values to the extinction values of the zero-point plate (=0%) and the extinction of the untreated (0 μM) cells (=100%). […] The IC50 values were determined by means of a 4-parameter fit using the company's own software. […]

[2] = test system: OVCAR-8; assay: Proliferation assay OVCAR-8; assay type: cell-based; details: Homo sapiens, 96 h; OVCAR-8, ovarial carcinoma; 4 days, crystal violet
Experimental: as §1

[3] = test system: A2780; assay: Proliferation assay A2780; assay type: cell-based; details: Homo sapiens, 96 h; A2780, ovarial carcinoma; 4 days, crystal violet
Experimental: as §1

[4] = test system: A2780-Cis; assay: Proliferation assay A2780-Cis; assay type: cell-based; details: Homo sapiens, A2780cis, 96 h, ovarial carcinoma, 4 days, crystal violet
Experimental: as §1

[5] = test system: HeLa-MaTu-ADR multidrug-resistant human cervix carcinoma cells; assay: HeLa-MaTu-ADR Res. xenograft model; assay type: in vivo, female NMRI nude mice
Source text: (§2) Tumor cells grown in cell culture were implanted subcutaneously in the flank of female or male NMRI nude mice. The treatment was started as soon as the tumors had grown to a size of approx. 20 mm^2 The study was ended as soon as the tumors in one of the groups reached a size of approx. 150 mm^2.
(§3) Vehicle group: treatment with solubilizer (40% PEG400/60% water)
(§4) The studies were designed for determining the initial response of the human tumor model to the treatment with the Exemplary compound 2-SI-2. Tumor growth inhibition in percent (TGI) was either calculated at the end of the studies from the tumor weights (TGITW) using the formula 100×[1−(tumor weight of the treatment group/tumor weight of the vehicle group)], or on the day the vehicle group had to be ended from the tumor areas (TGITA) using the formula 100×[1−(tumor area of the treatment group on the day of the measurement−tumor area of the treatment group prior to treatment)/(tumor area of the vehicle group on the day of the measurement−tumor area of the vehicle group prior to treatment)]. In the case of a tumor growth inhibition of more than 50%, the treatment was considered to have been effective.
Efficacy in the HeLa-MaTu-ADR Res. xenograft model
HeLa-MaTu-ADR multidrug-resistant human cervix carcinoma cells implanted into female NMRI nude mice.
Formulation • a) 0.15 mg/ml, 0.20 mg/ml of Example 2-SI-2 in 40% (v/v) PEG 400 in water • b) 0.20 mg/ml, 0.25 mg/ml of Example 2-SI-2 in 40% (v/v) PEG 400 in water
• a) 1.5 and 2.0 mg/kg (4.5 and 6.0 mg/m^2), 1× per day • b) 2.0 and 2.5 mg/kg (6.0 and 7.5 mg/m^2), 2× per day on 2 successive days, followed by 5 treatment-free days

[6] = test system: NCI-H526 human small-cell lung tumor cells; assay: NCI-H526 human small-cell lung tumor model; assay type: in vivo, female NMRI nude mice
Source text: as §2, §3, §4
Efficacy in the NCI-H526 human small-cell lung tumor model.
NCI-H526 human small-cell lung tumor cells implanted into female NMRI nude mice.
• a) 0.20 mg/ml of Example 2-SI-2 in 40% (v/v) PEG 400 in water • b) 0.20 mg/ml of Example 2-SI-2 in 40% (v/v) PEG 400 in water • c) 0.15 mg/ml of Example 2-SI-2 in 40% (v/v) PEG 400 in water • d) 0.17 mg/ml of Example 2-SI-2 in 40% (v/v) PEG 400 in water
• a) 2.0 mg/kg (6.0 mg/m^2), 1× per day. • b) 2.0 mg/kg (6.0 mg/m^2), 2× per day on 2 successive days, followed by 5 treatment-free days. • c) 1.5 mg/kg (4.5 mg/m^2), 2× per day on 3 successive days, followed by 4 treatment-free days. • d) 1.7 mg/kg (5.1 mg/m^2), 2× per day on 3 successive days, followed by 4 treatment-free days.

[7] = test system: A2780-Cis cisplatin-resistant human ovarial tumor cells; assay: A2780-Cis human ovarial tumor model; assay type: in vivo, female NMRI nude mice
Source text: as §2, §3, §4
Efficacy in the A2780-Cis human ovarial tumor model.
Efficacy in the A2780-Cis human ovarial tumor model A2780-Cis cisplatin-resistant human ovarial tumor cells implanted into female NMRI nude mice.
• a) 0.20 mg/ml of Example 2-SI-2 in 40% (v/v) PEG 400 in water • b) 0.15 mg/ml of Example 2-SI-2 in 40% (v/v) PEG 400 in water • c) 0.17 mg/ml of Example 2-SI-2 in 40% (v/v) PEG 400 in water
• a) 2.0 mg/kg (6.0 mg/m^2), 1× per day. • b) 1.5 mg/kg (4.5 mg/m^2), 2× per day on 3 successive days, followed by 4 treatment-free days. • c) 1.7 mg/kg (5.1 mg/m^2), 2× per day on 3 successive days, followed by 4 treatment-free days.

[8] = HeLa-MaTu-ADR; b) 2.5 mg/kg oral 2× per day on 2 successive days, followed by 5 treatment-free days

Row | IC50 [1] [nM] | IC50 [2] [nM] | IC50 [3] [nM] | IC50 [4] [nM] | SMILES | TGITW (tumor growth inhibition from tumor weights) ([5]; HeLa-MaTu-ADR; a) 2.0 mg/kg oral 1× per day) [%] | TGITW (tumor growth inhibition from tumor weights) [5, 8] [%] | tumor regression observation [5, 8] | TGITW (tumor growth inhibition from tumor weights) ([6]; NCI-H526; a) 2.0 mg/kg oral 1× per day) [%] | TGITW (tumor growth inhibition from tumor weights) ([6]; NCI-H526; b) 2.0 mg/kg oral 2× per day on 2 successive days, followed by 5 treatment-free days) [%] | TGITW (tumor growth inhibition from tumor weights) ([6]; NCI-H526; c) 1.5 mg/kg oral 2× per day on 3 successive days, followed by 4 treatment-free days) [%] | TGITW (tumor growth inhibition from tumor weights) ([6]; NCI-H526; d) 1.7 mg/kg oral 2× per day on 3 successive days, followed by 4 treatment-free days) [%] | TGITW (tumor growth inhibition from tumor weights) ([7]; A2780-Cis; a) 2.0 mg/kg oral 1× per day) [%] | TGITW (tumor growth inhibition from tumor weights) ([7]; A2780-Cis; b) 1.5 mg/kg oral 2× per day on 3 successive days, followed by 4 treatment-free days) [%] | TGITW (tumor growth inhibition from tumor weights) ([7]; A2780-Cis; c) 1.7 mg/kg oral 2× per day on 3 successive days, followed by 4 treatment-free days) [%]
1 | 16 | 14 | 3 | 10 | C[C@@H](O)[C@@H](C)Oc1nc(Nc2ccc(S(C)(=N)=O)cc2)ncc1C(F)(F)F (single isomer, unassigned) [Example 2-SI-2] | – | – | – | – | – | – | – | – | – | –
2 | – | – | – | – | C[C@@H](O)[C@@H](C)Oc1nc(Nc2ccc(S(C)(=N)=O)cc2)ncc1C(F)(F)F (mixture of isomers) [Example 2-SI-2, (RS)—S-(4-{[4-{[(1R,2R)-2-Hydroxy-1-methylpropyl]oxy}-5-(trifluoromethyl)pyrimidin-2-yl]-amino}phenyl)-S-methylsulfoximide] | 97 | 90 | signs of tumor regression | 98 | 72 | 79 | 88 | 85 | 88 | 92
